According to patent US20110195845A1, “Constructs for Expressing Herbicide Tolerance Genes, Related Plants, and Related Trait Combinations” (Dow AgroSciences LLC, priority 2008, published 2011):

Legend:
[1] = test system: Escherichia coli BL21-Star (DE3) with empty pET vector; experiment: Complementation of cell growth on glufosinate, empty pET vector (control); type: cell-based; design: key: +++ = Heavy Lawn Growth; ++ = Light lawn growth; + = patchy lawn growth; −− = No Growth; conditions: 24 hrs @28 C, 20 uM IPTG
From the text: A pET28a(+) expression plasmid containing PAT (v3) was constructed as a positive control. PAT (v3) was cloned as an NcoI-SacI fragment into corresponding restriction sites of pDAB779. Positive clones containing the PAT (v3) gene fragment were verified via restriction enzyme digestion. This construct was labeled as pDAB4434.
The plasmids, pDAB4434, pDAB4412, and an empty pET vector (control) were transformed into Escherichia coli BL21-Star (DE3) bacterial cells. Expression cultures were initiated with 10-200 freshly transformed colonies into 250 mL LB medium containing 50 μg/ml antibiotic and 75 μM IPTG (isopropyl-[…]). The cultures were grown at 28° C. for 24 hours at 180-200 rpm. Five microliters of the culture was inoculated onto a complex media control and minimal media containing incrementally increasing concentrations of glufosinate and 20 μM IPTG. The cultures were dispersed evenly over the plates and incubated at 28° C. for 24 hours.

[2] = test system: WT corn (5× H751× Hi II control plants); experiment: Corn response to glufosinate applied postemergence; type: in vivo; conditions: 14DAT
From the text: The seed from the cross of T1 DSM-2 (v2)×5× H751 were planted into 4-inch pots containing Metro Mix media and at 2 leaf stage were sprayed in the track sprayer set to 187 L/ha at 560 g ai/ha glufosinate to remove nulls. At 7 DAT nulls were removed and resistant plants were sprayed in the track sprayer as above at the following rates: 0, 560, 1120, 2240, and 4480 g ai/ha glufosinate. Plants were graded at 3 and 14 DAT and compared to 5× H751× Hi II control plants.

[3] = test system: Wildtype corn; experiment: Leaf paint with glufosinate in corn; type: in vivo; conditions: for % Injury: 2 WAT
Description: T0 DSM-2 (v2) plants were painted with a rundown of glufosinate herbicide. Four siblings from each of 15 T0 events were tested, and 4 leaves on each individual plant received a rundown of glufosinate at approximately V8 stage. Rundown treatments were randomized for each rate allowing for variation of treatment location on individual leaves. For corn, 0.25% v/v glufosinate is the minimum effective dose to distinguish sensitive plants from ones with meaningful levels of resistance. Elevated rates were also applied to determine relative levels of resistance (0.5%, 1.0%, and 2.0% v/v). Glufosinate treatments were applied using cotton tipped applicators to a treatment area of approximately 2.5 cm in diameter.
Table 11 compares the response of DSM-2 (v2) and control genes to impart glufosinate resistance to corn T0 transformants. Response is presented in terms of % visual injury 2 WAT. […] Since each T0 is an independent transformation event, one can expect significant variation of individual T0 responses within a given rate. An arithmetic mean and standard deviation is presented for each treatment. Untransformed wildtype corn served as a glufosinate sensitive control. The DSM-2 (v2) gene imparted herbicide resistance to individual T0 corn plants. Within a given treatment, the level of plant response varied greatly and can be attributed to the fact each plant represents an independent transformation event.

[4] = 560 g ai/ha glufosinate postemergence
[5] = 1120 g ai/ha glufosinate postemergence
[6] = 2240 g ai/ha glufosinate postemergence
[7] = 4480 g ai/ha glufosinate postemergence

CP(=O)(O)CCC(N)C(=O)O (centres unmarked) [glufosinate]
bacterial growth on minimal media ([1]; 250 μg/ml BASTA): −− | bacterial growth on minimal media ([1]; 500 μg/ml BASTA): −− | bacterial growth on minimal media ([1]; 1000 μg/ml BASTA): −− | bacterial growth on minimal media ([1]; 2000 μg/ml BASTA): −− | bacterial growth on minimal media ([1]; 4000 μg/ml BASTA): −− | % Injury Ave [2, 4]: 100% | individuals with % Injury 20-40% [2, 4]: 0 | individuals with % Injury <20% [2, 4]: 0 | individuals with % Injury >40% [2, 4]: 4 | % Injury Ave [2, 5]: 100% | individuals with % Injury 20-40% [2, 5]: 0 | individuals with % Injury <20% [2, 5]: 0 | individuals with % Injury >40% [2, 5]: 4 | % Injury Ave [2, 6]: 100% | individuals with % Injury 20-40% [2, 6]: 0 | individuals with % Injury <20% [2, 6]: 0 | individuals with % Injury >40% [2, 6]: 4 | % Injury Ave [2, 7]: 100% | individuals with % Injury 20-40% [2, 7]: 0 | individuals with % Injury <20% [2, 7]: 0 | individuals with % Injury >40% [2, 7]: 4 | % Injury ([3]; 0.25% v/v glufosinate leaf paint): 33% | % Injury ([3]; 0.5% v/v glufosinate leaf paint): 50% | % Injury ([3]; 1% v/v glufosinate leaf paint): 84% | % Injury ([3]; 2% v/v glufosinate leaf paint): 90% | minimum effective dose to distinguish sensitive plants from ones with meaningful levels of resistance ([3]; corn, leaf paint): 0.25 % v/v
